Measurements taken from ChEMBL document CHEMBL1667752 (Eur J Med Chem, 2011).
pKi: −log10 of the molar value.

How the values were obtained:
Cannabinoid receptor 2 = Cannabinoid receptor 2 (Homo sapiens, UniProt P34972); assay: Displacement of [3H]CP 55940 from human CB2 receptor in cell free system; details: for Ki: read-out: pKi (converted); for pKi: read-out: Ki
Homo sapiens = species: Homo sapiens; assay: Selectivity ratio of Ki for human CB1 to Ki for human CB2
Cannabinoid receptor 1 = Cannabinoid receptor 1 (Homo sapiens, UniProt P21554); assay: Displacement of [3H]CP 55940 from human CB1 receptor in cell free system
Sequence of Cannabinoid receptor 1 (P21554 whole entry): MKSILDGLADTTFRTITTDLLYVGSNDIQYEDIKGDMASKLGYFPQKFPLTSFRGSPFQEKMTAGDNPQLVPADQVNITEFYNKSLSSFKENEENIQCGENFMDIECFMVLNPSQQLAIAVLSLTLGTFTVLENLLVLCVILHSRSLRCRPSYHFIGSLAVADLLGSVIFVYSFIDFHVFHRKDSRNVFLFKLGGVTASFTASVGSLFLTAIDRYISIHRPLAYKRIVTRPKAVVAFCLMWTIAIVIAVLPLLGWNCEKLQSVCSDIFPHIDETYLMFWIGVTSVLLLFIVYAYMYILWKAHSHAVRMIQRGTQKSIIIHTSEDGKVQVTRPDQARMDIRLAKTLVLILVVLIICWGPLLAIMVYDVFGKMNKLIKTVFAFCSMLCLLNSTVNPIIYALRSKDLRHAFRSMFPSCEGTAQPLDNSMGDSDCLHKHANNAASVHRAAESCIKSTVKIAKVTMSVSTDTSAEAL

Sequence of Cannabinoid receptor 2 (P34972 whole entry): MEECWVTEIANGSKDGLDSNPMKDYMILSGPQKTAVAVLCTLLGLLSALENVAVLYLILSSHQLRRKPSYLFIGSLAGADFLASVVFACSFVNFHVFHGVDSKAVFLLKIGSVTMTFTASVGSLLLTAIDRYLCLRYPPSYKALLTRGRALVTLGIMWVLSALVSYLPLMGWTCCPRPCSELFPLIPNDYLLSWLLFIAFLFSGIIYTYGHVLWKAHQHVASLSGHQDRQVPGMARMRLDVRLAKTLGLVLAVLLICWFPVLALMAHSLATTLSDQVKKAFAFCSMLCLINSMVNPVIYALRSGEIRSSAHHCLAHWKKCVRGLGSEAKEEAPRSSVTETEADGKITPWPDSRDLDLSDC

Compound	Ki (Cannabinoid receptor 2)	log(ratioKi) (Homo sapiens)	pKi (Cannabinoid receptor 2)	pKi (Cannabinoid receptor 1)
CCCCCn1cc(C(=O)NC23CC4CC(CC(C4)C2)C3)c(=O)c2cc(-c3c(C)noc3C)ccc21	102 nM			
Cc1ccc(NC(=O)C2CCCCC2(C)C)cc1S(=O)(=O)N1CCOCC1 (stereo not drawn)		1.85		
COc1ccc2c(c1)c(CCN1CCOCC1)c(C)n2C(=O)c1cccc(Cl)c1Cl		2.21		
CC1(C)C(C(=O)c2cn(CC3CCOCC3)c3ccc(N)cc23)C1(C)C		2.05	8.05	6.00
CCCCCn1cc(C(=O)NC23CC4CC(CC(C4)C2)C3)c(=O)c2cc(Sc3ccccc3)ccc21		2.28		
COc1ccc2c(c1)c(C(=O)C1C(C)(C)C1(C)C)cn2CC1CCOCC1		2		
CCCCCn1cc(C(=O)NC23CC4CC(CC(C4)C2)C3)c(=O)c2cc(CCc3ccccc3)ccc21		2.27		
CCCCCn1cc(C(=O)NC23CC4CC(CC(C4)C2)C3)c(=O)c2cc(C(F)(F)F)ccc21		2.34		
Cc1ccc(C(=O)NC(C(C)(C)C)C(C)(C)C)cc1S(=O)(=O)N1CCOCC1		0.95		
Cc1ccc2c(=O)c(C(=O)NC3CCCC3)cn(CCN3CCOCC3)c2n1		1.3	7.30	6.00
CC1(C)C(C(=O)c2cn(CC3CCOCC3)c3ccc(OCc4ccccc4)cc23)C1(C)C		2.3		6.63
CCCCCn1cc(C(=O)NC23CC4CC(CC(C4)C2)C3)c(=O)c2ccccc21		0.95		
CCCCCn1cc(C(=O)NC23CC4CC(CC(C4)C2)C3)c(=O)c2cc(-c3ccc(F)cc3F)ccc21		2.79		
CCCCCn1cc(C(=O)NC2C(C)(C)[C@@H]3CC[C@@]2(C)C3)c(=O)c2cc(-c3ccco3)ccc21 (stereo partly drawn)		2.3	8.62	6.32
Cc1ccc(-c2nc(CC3CCCCC3)cs2)cc1S(=O)(=O)N1CCOCC1		1.22		
CC1(C)C(C(=O)c2cn(CC3CCOCC3)c3cc(-c4ccccc4)ccc23)C1(C)C		2.27	9.40	
CCCCCn1cc(C(=O)NC23CC4CC(CC(C4)C2)C3)c(=O)c2cc(-c3ccc(Cl)s3)ccc21		2.35		
CCCCCn1c(C)c(C(=O)c2cccc3ccccc23)c2ccccc21		0.28		
COc1ccc(OC)c2c(=O)c(C(=O)NC34CC5CC(CC(C5)C3)C4)c[nH]c12		1.6	7.28	5.68
CCCCC/C=C\C/C=C\C/C=C\C/C=C\CCCC(=O)N[C@H]1C[C@@H]1O	191 nM			
C=C1CC[C@@H]2[C@@H](C1)c1c(OC)cc(C(C)(C)CCCCCC)cc1OC2(C)C		2.26	7.93	5.31

Compound	Ki (Cannabinoid receptor 2)	log(ratioKi) (Homo sapiens)	pKi (Cannabinoid receptor 2)	pKi (Cannabinoid receptor 1)
COc1cccc2c(C(=O)C3C(C)(C)C3(C)C)cn(CC3CCOCC3)c12			10.00	
CCCCCn1cc(C(=O)NC23CC4CC(CC(C4)C2)C3)c(=O)c2cc(-n3ccnc3)ccc21		3.1		
COCCn1cc(C(=O)C2C(C)(C)C2(C)C)c2ccccc21		2.35		
CC1=CC[C@@H]2[C@@H](C1)c1c(O)cc(-c3cccc4ccccc34)cc1OC2(C)C		0.09		
O=C(c1cn(CC2CCOCC2)c2ccccc12)C1CCCC1		1.07		
CCCCCCC(C)(C)c1cc(OC)c2c(c1)OC(C)(C)[C@@H]1CC=C(C)C[C@@H]21		2.21	8.19	5.98
CC1=CC[C@@H]2[C@@H](C1)c1c(O)cc(C(C)(C)c3cccs3)cc1OC2(C)C		1.13	9.04	7.91
CCCCCn1cc(C(=O)NC23CC4CC(CC(C4)C2)C3)c(=O)c2cc(-c3ccccc3)ccc21		3.42		
CCCCCCC1(c2cc(O)c3c(c2)OC(C)(C)[C@@H]2CC=C(C)C[C@@H]32)CC1		0.07	9.05	9.00
Cc1ccc2c(c1)Cc1c(C(=O)NN3CCCCC3)nn(-c3ccc(Cl)cc3Cl)c1-2		3.95	10.40	6.44
CCC(C)(C)C(=O)Cc1cc(C)c(C)c(S(=O)(=O)N2CCCCCC2)c1		2.3	8.05	5.74
CC1(Cc2ccccc2)COc2cc(C(=O)N3CCCCC3)ccc21 (stereo not drawn)		1.37		< 5.00
CCCCCCC1(c2cc(O)c3c(c2)OC(C)(C)[C@@H]2CC=C(C)C[C@@H]32)OCCO1		0.43	9.70	9.30
CC1(C)C(C(=O)c2cn(CC3CCOCC3)c3c(COc4ccccc4)cccc23)C1(C)C		0.98	8.52	7.55
CCC1CCC(C(=O)c2cn(CCN3CCOCC3)c3ccccc23)CC1 (stereo not drawn)		1.58	7.80	6.21
Cc1c(C(C)(C)C)s/c(=N\C(=O)c2ccc(Br)cc2)n1CC1CC1		1.6	8.92	7.28
Cc1ccc2c(C(=O)C3C(C)(C)C3(C)C)cn(CC3CCOCC3)c2c1			9.70	
CCCCCn1cc(C(=O)NC23CC4CC(CC(C4)C2)C3)c(=O)c2cccc(C)c21		> 3.3	8.31	< 5.00
CCCCCn1cc(C(=O)NC23CC4CC(CC(C4)C2)C3)c(=O)c2cc(-c3ccc(C#N)cc3)ccc21		2.38		
CC1=CC[C@@H]2[C@@H](C1)c1c(O)cc(C3(C4CCCCC4)SCCS3)cc1OC2(C)C		0.24		
CCCCCn1cc(C(=O)NC23CC4CC(CC(C4)C2)C3)c(=O)c2cc(-c3cc(C)c(OC)c(C)c3)ccc21		1.38		

Compound	Ki (Cannabinoid receptor 2)	log(ratioKi) (Homo sapiens)	pKi (Cannabinoid receptor 2)	pKi (Cannabinoid receptor 1)
CCCCCn1cc(C(=O)NC23CC4CC(CC(C4)C2)C3)c(=O)c2cc(-c3cccs3)ccc21		3.68		
Cc1c(Cl)ccc2c(=O)c(C(=O)NC34CC5CC(CC(C5)C3)C4)c[nH]c12		2.59	7.59	< 5.00
C#CCn1cc(C(=O)NC23CC4CC(CC(C4)C2)C3)c(=O)c2cc(Br)ccc21		1.81		
CCCCCn1cc(C(=O)NC23CC4CC(CC(C4)C2)C3)c(=O)c2cc(CC)ccc21		1.74		
CC1=CC[C@@H]2[C@@H](C1)c1c(OC(=O)CCCN3CCOCC3)cc(C(C)(C)CCCCC#N)cc1OC2(C)C		0.02	8.10	8.08
CC1(C)C(C(=O)c2cn(C[C@@H]3CCCO3)c3ccccc23)C1(C)C		1.82		
Cc1ccc(NC(=O)C(C)(C(F)(F)F)C(F)(F)F)cc1S(=O)(=O)N1CCOCC1		1.31		
CCCCCn1cc(C(=O)NC23CC4CC(CC(C4)C2)C3)c(=O)c2cc(-c3ccc(O)cc3)ccc21		3.38		
C#Cc1ccc2c(c1)c(=O)c(C(=O)NC13CC4CC(CC(C4)C1)C3)cn2CCCCC		3.05		
CCCCCn1cc(C(=O)NC23CC4CC(CC(C4)C2)C3)c(=O)c2cc(-c3ccc(Cl)cc3)ccc21		3		
CN1CCCCC1Cn1cc(C(=O)c2cc([N+](=O)[O-])ccc2I)c2ccccc21 (stereo not drawn)		2.64		
CCCCCn1c(C)c(C(=O)c2ccc(CCC)c3ccccc23)c2ccccc21		0.32	9.22	8.89
CCCC(C)(C)c1ccc2c(c1)OC(C)(C)[C@@H]1CC=C(C)C[C@@H]21		2.3		
CCC(C)(C)C(=O)Cc1cc(C)c(C)c(S(=O)(=O)N2CCCCC2)c1		2.38	8.57	6.19
CCC(C)(C)C(=O)Nc1cc(CN2CCOCC2)c(C)cn1		2.19		
Cc1c(C(C)(C)C)s/c(=N\S(=O)(=O)c2cccc3ccccc23)n1C1CC1		2.02	7.80	5.77
COCc1ccc2c(c1)c(C(=O)C1C(C)(C)C1(C)C)cn2CC1CCOCC1			7.60	
CC1=CC[C@@H]2[C@@H](C1)c1c(O)cc(C3(C#N)CCCCC3)cc1OC2(C)C		0.34		
CCCCCn1cc(C(=O)NC23CC4CC(CC(C4)C2)C3)c(=O)c2cc(-c3ccco3)ccc21		4.15		
O=S(=O)(CCCC(F)(F)F)Oc1cccc(Oc2cccc3c2C[C@H](CO)C3)c1	4.27 nM			
CCCCCn1cc(C(=O)NC23CC4CC(CC(C4)C2)C3)c(=O)c2cc(Br)ccc21		1.82		

Compound	Ki (Cannabinoid receptor 2)	log(ratioKi) (Homo sapiens)	pKi (Cannabinoid receptor 2)	pKi (Cannabinoid receptor 1)
COc1ccc(-c2oc3cc(OC)ccc3c2C(=O)c2ccc(C#N)cc2)cc1	14800 nM			
CCCCCn1cc(C(=O)NC23CC4CC(CC(C4)C2)C3)c(=O)c2cc(C3CCCCC3)ccc21		3.14		
CC1(C)C(C(=O)c2cn(CCN3CCOCC3)c3cccc(N)c23)C1(C)C		2.05		5.46
COCCn1c(C)c(C)s/c1=N\C(=O)C1C(C)(C)C1(C)C		2.62	9.19	
CCCCCn1cc(C(=O)NC2C3CC4CC(C3)CC2C4)c(=O)c2ccccc21 (stereo not drawn)		2.16		
Cc1nc(C(=O)NC23CC4CC(CC(C4)C2)C3)c(C)n1-c1ccccc1		3.2		
Cc1c(C(=O)NC2CCCCC2)nn(-c2ccc(Cl)c(Cl)c2)c1-n1cccc1		0.52		
CCCCc1c(C(=O)NC23CC4CC(CC(C4)C2)C3)nc(C)n1-c1ccccc1		2.3		
Cc1ccc(-c2nc(CC(C)(C)C)cs2)cc1S(=O)(=O)N1CCOCC1		1.58		
Cc1c(C(=O)NC2CCCCC2)nn(-c2ccc(Cl)c(Cl)c2)c1-n1c(C)ccc1C		1.05		
CCCCCOc1c(OC)ccc2cc(C(=O)NCc3ccc4c(c3)OCO4)c(=O)[nH]c12				5.63
CCCCCn1cc(C(=O)NC23CC4CC(CC(C4)C2)C3)c(=O)c2cc(C3=CCCCC3)ccc21		3.08		
Cc1ccc(NC(=O)C2C(C)(C)C2(C)C)cc1S(=O)(=O)N1CCOCC1		2.16		
CC1=CC[C@@H]2[C@@H](C1)c1c(O)cc(C(C)(C)C3CCCCCC3)cc1OC2(C)C		0.63		
CCCCCCNC(=O)c1cn(CCCCC)c2ccc(Br)cc2c1=O	891 nM			
C=CCCn1cc(C(=O)NC23CC4CC(CC(C4)C2)C3)c(=O)c2cc(-c3ccco3)ccc21		3.35		
CCc1nc(C(=O)NC23CC4CC(CC(C4)C2)C3)c(C)n1-c1ccccc1		3.41		
CCCCCn1cc(C(=O)NC23CC4CC(CC(C4)C2)C3)c(=O)c2cc(I)ccc21		2.01		
N#Cc1c(Oc2cccc(OS(=O)(=O)CCCC(F)(F)F)c2)cccc1C(F)(F)F		0.03		7.32
